Results on 1 compound are retold here after PMC11881906, “Development of xanthone derivatives as effective broad-spectrum antimicrobials: Disrupting cell wall and inhibiting DNA synthesis” (Science Advances, 2025).

One data set deals with rabbit erythrocytes. Description: Hemolysis assay. The following applies: concentration causing 50% hemolysis of red blood cells; 1 hour, 37°C. Type of data set: cell-based. The method, boiled down:
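Washed rabbit erythrocytes, 8% (v/v) in PBS pH 7.4, incubated 1 h at 37 °C with twofold-diluted compounds (DMSO <0.5%). Haemoglobin release read at 576 nm in supernatant; % hemolysis normalised between PBS (0%) and 0.2% Triton X-100 (100%), three repeats in duplicate.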

The next data set has as its system Gram-negative bacteria. Description: MIC, Gram-negative strains. Type of data set: cell-based. The following applies: read-out: MICs against Gram-negative bacteria. On the procedure:
MIC was determined using the broth microdilution method in accordance with Clinical and Laboratory Standards Institute guidelines. All compounds were dissolved in dimethyl sulfoxide (DMSO; final DMSO concentration of less than 0.5%) and sterile double-distilled water and then diluted with Mueller-Hinton broth (MHB). Each compound’s stock solution was serially twofold diluted, resulting in concentrations ranging from 0.39 to 100 μg/ml, and thereafter added to sterile 96-well plates. All bacterial cell suspensions were adjusted in MHB to attain a starting inoculum of 1 × 10^6 cells/ml. A total of 100 μl volume of the bacterial suspension was then added to each well. Following a 24-hour incubation at 37°C, the optical density at 600 nm (OD600) was confirmed by measuring absorbance at 600 nm with a BioTek microplate reader. […] All measurements were repeated three times with duplicates each time.

A short description of a further data set: CCK-8 cytotoxicity assay. Type of data set: cell-based. As for the experimental part:
(§1) Cytotoxicity of the compound tested was assessed by CCK-8 assays as previously described ([71]). […] Following a 24-hour incubation, 10 μl of CCK-8 reagent was added to each well and incubated for 1 hour. The absorbance at 450 nm was measured by a microplate reader. All measurements were repeated three times with duplicates each time.
Background: Tetrazolium assays rely on reduction of a dye to a coloured formazan, in cell work by metabolically active cells.

Data set [1] can be described thus: In vitro cytotoxicity (CC50). Type of data set: cell-based. The following applies: human, mouse, HepG2 cells and mouse fibroblast NCTC clone 929 cells; mammalian cells, CCK-8; read-out: concentration of cytotoxicity 50% (CC50). On the procedure: as §1
In data set [2] the test system is S. aureus ATCC 29213. Description: DiSC3(5) membrane depolarization assay. Type of data set: cell-based, Staphylococcus aureus. The following applies: 1× to 8× MIC. As for the experimental part:
The DiSC3(5) assay was carried out to investigate the cytoplasmic membrane depolarization. Mid-log phase bacteria culture was centrifuged and resuspended in sterile Hepes buffer [5 mM (pH 7.4)] to adjust the concentration of bacterial cells to obtain OD600 of 0.1. The bacterial suspension was then incubated with 2 μM DiSC3(5) for 1 hour without being exposed to the light. The change in fluorescence intensity was monitored by a BioTek multidetector microplate reader with an excitation wavelength of 622 nm and an emission wavelength of 670 nm. […] All measurements were repeated three times with duplicates each time.

Another data set concerns P. aeruginosa ATCC 9027. Description: Murine corneal infection model. Type of data set: in vivo, mice. The following applies: topical, 2 days; XT17 5 mg/ml, gatifloxacin 3 mg/ml; vs 5% glucose control. The text has this: (§2) Female C57BL/6 mice (average weight, 20 g) were used for the in vivo efficacy experiments. Mice were housed in a specific pathogen–free facility on a 12-hour light-dark cycle, under the condition with ad libitum access to irradiation sterilized rodent diet and aseptic water. […]. These in vivo experiments were approved by the Experimental Animal Center of South China Agricultural University and conducted in accordance with the policies of the Ministry of Health of China.
(§3) The in vivo efficacy of compound XT17 was investigated in a murine corneal infection model. Before infection, the mice were immunosuppressed with three intraperitoneal injections of cyclophosphamide (100 mg/kg) over 5 days. After anesthesia with 2.5% avertin (500 mg/kg, ip), the left corneas of mice were scratched with 15 μl of S. aureus ATCC 29213 or P. aeruginosa ATCC 9027 (approximately 5 × 10^7 CFU/ml). Following 1 day of infection, the infected mice were randomly assigned into […] (n = 5) and subsequently administered with 0.5% compound XT17, 5% glucose solution, 5% vancomycin, or 0.3% gatifloxacin topically. S. aureus–caused murine corneal infections were treated four times a day for three consecutive days. Only 2 days of treatment were given for P. aeruginosa–caused murine corneal infections. On the first day, the drug was administered every 20 min for 1 hour and then three times at 2-hour intervals on the second day. The mice were given a 5% glucose solution as a negative control in the absence of any antimicrobial agent treatment. The infected corneas were collected after the mice were euthanized, and the number of viable bacteria was counted using MHA plates.

The subject of data set [3] is S. aureus ATCC 29213. Kind of data set: Murine corneal infection model. Type of data set: in vivo, mice. The settings on record: topical, four times daily for 3 days; XT17 5 mg/ml, vancomycin 50 mg/ml; vs 5% glucose control.
Source text: as §2, §3

The conditions of data set [4]: for the free guanidine group, not the whole compound; cited from earlier work.
The mark [5] stands for this setting: human, HepG2 cells, read-out: Viable cells (%) HepG2 cells.
The mark [6] stands for this setting: mouse, NCTC clone 929 fibroblast cells, read-out: %Viable cells NCTC clone 929 cells.

Converted amounts (≈) assume the structure as drawn. Like-named read-outs stand apart in the source and are kept apart here. Some results are limits rather than exact numbers.

As to `CC(C)=CCOc1cc(OCCCNC(=N)N)cc2oc3cc(OCCCNC(=N)N)ccc3c(=O)c12` [XT17], the HC50 (as a rule, the concentration that lyses half of the red blood cells) with rabbit erythrocytes was more than 200 µg/mL. For the same compound, in the data set on Gram-negative bacteria, the MIC was 3.12 µg/mL (≈ 6.12 µM). For the same compound, in the data set “CCK-8 cytotoxicity assay” (setting [5]), the viability at 24 h, 3.125 μg/ml is 105%; the viability at 24 h, 6.25 μg/ml was determined as 110%; the viability at 24 h, 12.5 μg/ml came to 104%; the viability at 24 h, 25 μg/ml was found to be 83.9%. In the data set “CCK-8 cytotoxicity assay” (setting [5]), the viability at 24 h, 50 μg/ml came out at 62.2 ± 8.01% and the viability at 24 h, 100 μg/ml worked out at 40.6%. In the data set “CCK-8 cytotoxicity assay” (setting [6]), the viability at 24 h, 3.125 μg/ml came to 90%; the viability at 24 h, 6.25 μg/ml came out at 87.9%; the viability at 24 h, 12.5 μg/ml came to 87.7%; the viability at 24 h, 25 μg/ml stood at 78.9 ± 3.46%. In addition, in “CCK-8 cytotoxicity assay” (setting [6]), the viability at 24 h, 50 μg/ml was found to be 51.6 ± 2.46% and the viability at 24 h, 100 μg/ml came out at 8.16%. In addition, the CC50 at 24 h in data set [1] was more than 50 µg/mL. Further, the “DiSC3(5) fluorescence intensity (membrane depolarization)” value with S. aureus ATCC 29213 [2] is listed as “no changes in fluorescence intensity”. The “log reduction in viable bacterial colonies in the infected corneas” value in the data set with P. aeruginosa ATCC 9027 is recorded as 2.88 log. Besides, the “log reduction in viable bacterial colonies in the infected corneas” value in the data set on S. aureus ATCC 29213 [3] came out at 6.10 log. In addition, in data set [4], the pKa (commonly the pH at which an ionisable group is half protonated) is reported as 12.48.
